Here are results for 1 compound from patent publication US6060481A, “Method for improving insulin sensitivity using an adenosine receptor antagonist” (priority 1999, dated 2000).

Assay [1] has as its target T1, human A3 adenosine receptor (Homo sapiens, UniProt P0DMS8).
T1 construct: expressed in transfected cells
T1 sequence (P0DMS8 1-318): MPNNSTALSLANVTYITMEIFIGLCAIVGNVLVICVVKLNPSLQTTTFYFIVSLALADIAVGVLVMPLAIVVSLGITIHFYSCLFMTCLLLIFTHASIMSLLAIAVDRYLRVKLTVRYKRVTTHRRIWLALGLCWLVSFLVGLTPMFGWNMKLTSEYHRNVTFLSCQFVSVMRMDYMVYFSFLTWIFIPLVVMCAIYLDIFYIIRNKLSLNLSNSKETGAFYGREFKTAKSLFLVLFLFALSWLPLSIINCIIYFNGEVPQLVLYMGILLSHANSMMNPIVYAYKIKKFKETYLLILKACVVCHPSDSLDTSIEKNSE
Nature of the assay: Binding constants against cloned and expressed human adenosine receptor subtypes (A3). The settings on record: read-out: Binding constant (KD) A3.

The conditions of assay [2]: Zucker rats; cited from earlier work.
Assay [3] deals with T2, human A1 adenosine receptor (Homo sapiens, UniProt P30542).
T2 construct: expressed in transfected cells
T2 sequence (P30542 1-326): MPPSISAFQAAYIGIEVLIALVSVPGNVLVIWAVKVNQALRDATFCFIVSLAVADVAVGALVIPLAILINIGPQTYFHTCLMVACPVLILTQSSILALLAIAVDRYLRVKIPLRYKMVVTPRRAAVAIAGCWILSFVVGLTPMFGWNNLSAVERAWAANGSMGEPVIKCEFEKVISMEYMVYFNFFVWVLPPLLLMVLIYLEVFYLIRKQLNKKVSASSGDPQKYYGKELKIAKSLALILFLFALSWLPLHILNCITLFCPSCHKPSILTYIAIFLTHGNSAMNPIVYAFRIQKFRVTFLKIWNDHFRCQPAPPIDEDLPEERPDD
Kind of assay: Binding constants against cloned and expressed human adenosine receptor subtypes (A1). The following applies: read-out: Binding constant (KD) A1.

Assay [4] concerns protein tyrosine phosphatase. Kind of assay: In vitro inclusion of compound in WGA eluates, protein tyrosine phosphatase assay. Type of assay: biochemical, Zucker rats. The settings on record: 10 μM in vitro in WGA eluates from obese controls.
Description: Assays were performed at 25° C. using a slight modification of a protocol described by Ahmad and Goldstein, Am. […] Each tube contained 10 μl [^32 P]tyrosine-phosphorylated myelin basic protein (1×10^4 dpm; 2×10^3 dpm/pmol), 10 μl 5X PTP-ase buffer [250 mM HEPES (pH 7.0), 10 mM EDTA, 5 mM DTT], and 1-5 μg muscle fraction protein and water in a total volume of 40 μl. Consumption of substrate (phosphorylated myelin basic protein) was limited to 20%. […] The assay differs from that of Ahmed and Goldstein in that the amount of phosphorylated substrate (myelin basic protein) was lower and its specific activity higher, similar to the skeletal muscle PTPase assay described by Tanowitz, et al., Brain Res., 712:299-306 (1996).
PTPase was measured in skeletal muscle cytosolic fractions, particulate fractions, and in partially purified insulin receptors. To assay PTPase activity in partially purified insulin receptors the WGA eluates were dialyzed overnight against 0.1% β-mercaptoethanol and 20 mM HEPES, pH 7.2, to eliminate phosphatase inhibitors.
The target in assay [5] is T3, human A2B adenosine receptor (Homo sapiens, UniProt P29275).
T3 construct: expressed in transfected cells
T3 sequence (P29275 1-332): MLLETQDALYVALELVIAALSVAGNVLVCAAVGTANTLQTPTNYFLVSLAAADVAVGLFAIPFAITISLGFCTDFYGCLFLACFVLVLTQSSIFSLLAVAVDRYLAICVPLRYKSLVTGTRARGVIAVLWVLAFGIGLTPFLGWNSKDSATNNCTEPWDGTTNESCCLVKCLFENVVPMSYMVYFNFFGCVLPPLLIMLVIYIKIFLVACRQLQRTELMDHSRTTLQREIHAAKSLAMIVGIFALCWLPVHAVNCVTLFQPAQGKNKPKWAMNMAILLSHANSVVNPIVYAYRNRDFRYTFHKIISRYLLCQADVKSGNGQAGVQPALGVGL
Kind of assay: Binding constants against cloned and expressed human adenosine receptor subtypes (A2B). The following applies: read-out: Binding constant (KD) A2B. The source says:
Any A2B adenosine receptor antagonist can be used according to the present methods. Methods for determining whether a compound is an A2B adenosine receptor agonist or antagonist involve quantitating its binding affinity to membranes which are known to contain the A2B subtype. The methods for determining whether compounds are specific ligands of different adenosine receptor subtypes will be known by practitioners of the art. […] References cited therein provide more complete descriptions of the procedures used.
In these previous methods, a radioactive compound (DPCPX) known to be highly specific for A1 adenosine receptors and whose KD is published was incubated with isolated fat cell membranes. A1 adenosine receptors are abundant in fat cells and DPCPX's binding to fat cell membranes occurs due to those receptors. […] Human cells which express large amounts of human A2B adenosine receptors are not readily available. Therefore, in order to determine the KD of BWA1433 for the A2B adenosine receptor the cDNA of human A2B adenosine receptor was used to overexpress the A2B adenosine receptor in a mammalian cell line.

Regarding `CCCn1c(=O)c2[nH]c(-c3ccc(C=CC(=O)O)cc3)nc2n(CCC)c1=O` [BWA1433, 1,3-dipropyl-8-(p-acrylic)phenylxanthine], the Kd in assay [1] is 30 nM; in assay [3] it was 140 nM; in assay [5], 60 nM. The Glucose tolerance result in assay [2] was “improves glucose tolerance”. For the same compound, the “Effect on protein tyrosine phosphatase activity” value in assay [4] is given as “no effect”.

As usually defined, the Kd is the equilibrium constant for the complex coming apart.
